Columns and labels:
Assay type in all cases: biochemical, Plasmodium falciparum
[1] = tested on: pfTopl; experiment: DNA cleavage-ligation assay with radio-labeled duplex DNA in absence or presence of CPT; details: 60 nM CPT, duplex OL62/OL63, 20 min at 37° C.
Method: Detection of PfTopl activity using radio-labeled DNA substrates: DNA cleavage reactions were carried out by incubating 20 nM duplex OL37/OL56 or OL62/OL63 with 500 fmol of pfTopl or hTopl in the absence or presence of 60 nM CPT for 20 min at 37° C. in 10 mM Tris (pH 7.5), 5 mM MgCI2, and 5 mM CaCI2 in a final volume of 20 μI. After the 20 min incubation, reactions were stopped with 0.5% (w/v) SDS. Samples were subjected to ethanol precipitation, resuspended in 10 μI of 1 mg/ml trypsin and incubated at 37° C. for 30 min. Reaction products were analyzed by denaturing polyacrylamide gel electrophoresis following standard procedures, and radioactive bands were visualized by PhosphorImaging.

[2] = tested on: pfTopl; experiment: REEAD: circularization of oligonucleotide sensors by purified pfTopl; details: control-circle added
Source text: Like human topoisomerasel (hTopl), pfTopl belongs to the family of nuclear typelB topoisomerases, which introduce transient single-strand breaks in double-stranded DNA with preference for a very degenerate consensus sequence. Cleavage results in a covalent enzyme-DNA intermediate allowing religation of the generated nick (FIG. 23). […] Based on this, five different oligonucleotides with potential of being circularized specifically by pfTopl cleavage-ligation were designed. These oligonucleotides (PfTopl (S1-S5)) all folded into a hairpin structure containing a probe- and a primer-annealing sequence in the single-stranded loop and a potential pfTopl recognizable sequence at the end of the double-stranded stem region (FIG. 1 b). […] To allow comparative quantification of signals generated in different reactions, a known concentration of control-circle with a unique probe-annealing sequence was added to the reaction mixtures before RCA and resulting RCPs visualized using a green-fluorescent probe. […]
(§1) REEAD-microscopic readout: The 5′-amine-conjugated primer was coupled to CodeLink Activated Slides (SurModics) according to the manufacturer's description. […] Quantification of pfTopl specific signals was performed as previously described^1. REEAD-HRP readout: Primer coupling to NHS-activated M-PVA Akl 1 magnetic beads (Chemagen) was performed according to the manufacturer's description. […]

[3] = tested on: pfTopl; experiment: REEAD in nuclear extract from HEK293T cells with or without spike-in pfTopl
Source text: The specificity of pfTopl(S1) for pfTopl in crude biological samples was addressed using nuclear extract from human HEK293T cells with or without spike-in pfTopl as a model for Plasmodium infection. […] Consequently, green signals observed in FIG. 22b, right panel, originated from hTopl and pfTopl activity in combination where pfTopl(S1) and S(Topl) competed for reaction by pfTopl at the expense of sensitivity.
Cell culture and nuclear extract preparation: Human embryonic kidney HEK293T cells were cultured in Dulbecco's Modified Eagle Medium (GIBCO) supplemented with 10% fetal bovine serum (FBS) (GIBCO), 100 units/mL penicillin and […] streptomycin (Invitrogen). Cells were incubated in a humidified incubator (5% CO2/95% air atmosphere at 37° C.). Cells were harvested with 0.5% Trypsin-EDTA (GIBCO).
Media was discarded and the cell washed in Phosphate-Buffered Saline (1×PBS) prior to nuclear extraction performed as previously described′. […]
as §1

| Molecule | effect of camptothecin on pfTopl ligation product [1] | circularization efficiency by pfTopl (red signals relative to green signals) [2] | specificity of sensor for pfTopl in nuclear extract [3] |
| --- | --- | --- | --- |
| CC[C@@]1(O)C(=O)OCc2c1cc1n(c2=O)Cc2cc3ccccc3nc2-1 [camptothecin] | A ligation product is only observed upon incubation of the substrate with pfTopl in the absence of camptothecin |  |  |
| pfTopl(S1): hairpin oligonucleotide sensor for pfTopl, sequence in the 2nd table (TCTAGAAAGTATAGGAACTTCGAACGACTCAGAATGACTG; hairpin, further chemistry not given here) |  | most efficient sensor of pfTopl | specificity of pfTopl(S1) for pfTopl even on a background of human nucleus content |
| S(Topl): REEAD sensor previously demonstrated to react specifically with hTopl in human cell extract (SEQ ID NO: 25) (nucleic acid, chemistry not given here) AGAAAAATTTTTAAAAAAACTGTGAAGATCGCTTATTTTTTTAAAAATTTTTCTAAGTCTTTTAGATCCCTCAATGCTGCTGCTGTACTACGATCTAAAAGACTTAGA |  | circularizes S(Topl) |  |
